# Reference: ChEMBL document CHEMBL5506037, “Synthesis of Heterocyclic Ring-Fused Bisnoralcohol Derivatives as Novel Small-Molecule Antiosteoporosis Agents” (J Med Chem, 2024)
# Activity calls are given as the source filed them. No cut-off for these calls is given here.
# Assays:
# BMMC [1] = experiment: Anti-osteoclastogenesis activity in M-CSF/RANKL-induced C57BL/6J mouse BMMC cells assessed as reduction in size and amount of osteoclasts by measuring reduction in TRAP-positive multinucleated cells incubated for 7 days by TRAP staining based analysis; format: functional, cell-based; conditions: dose 0.05-0.5 µM, time 7.0 day
# BMMC [2] = experiment: Anti-osteoclastogenesis activity in M-CSF/RANKL-induced C57BL/6J mouse BMMC cells assessed as inhibition of Fosl2 gene expression by RNA sequencing analysis; format: functional, cell-based
# BMMC [3] = experiment: Anti-osteoclastogenesis activity in M-CSF/RANKL-induced C57BL/6J mouse BMMC cells assessed as reduction in c-Fos mRNA expression at 0.05 to 5 uM measured after 2 days by RT-qPCR analysis; format: functional, cell-based; conditions: dose 0.05-5 µM, time 2.0 day
# BMMC [4] = experiment: Anti-osteoclastogenesis activity in M-CSF/RANKL-induced C57BL/6J mouse BMMC cells assessed as reduction in c-Fos protein expression measured after 3 days by Western blot analysis; format: functional, cell-based; conditions: dose 0.05-5 µM, time 3.0 day
# Mus musculus [5] = experiment: Anti-osteoporosis activity in ovariectomized C57BL/6 mouse assessed as prevention of bone loss by measuring reduction in osteoclast formation at 0.6 mg/kg, ip administered every day for 6 weeks by TRAP staining based analysis; format: functional, organism-based
# BMMC [6] = experiment: Anti-osteoclastogenesis activity in M-CSF/RANKL-induced C57BL/6J mouse BMMC cells assessed as inhibition of Acp5 gene expression by RNA sequencing analysis; format: functional, cell-based
# Mus musculus [7] = experiment: Anti-osteoporosis activity in ovariectomized C57BL/6 mouse assessed as prevention of bone loss by measuring recovery of trabecular thickness in femur at 0.2 to 0.6 mg/kg, ip administered every day for 6 weeks by 3D-imaging analysis; format: functional, organism-based; conditions: dose 0.2-0.6 mg/kg
# BMMC [8] = experiment: Anti-osteoclastogenesis activity in M-CSF/RANKL-induced C57BL/6J mouse BMMC cells assessed as inhibition of Nfatc1 gene expression by RNA sequencing analysis; format: functional, cell-based
# [9] = Toxicity in ovariectomized female C57BL/6 mouse assessed as reduction in body weight at 0.2 to 0.6 mg/kg, ip administered every day for 6 weeks; format: organism-based; conditions: in vivo, 1008 h, dose 0.2-0.6 mg/kg
# BMMC [10] = experiment: Anti-osteoclastogenesis activity in M-CSF/RANKL-induced C57BL/6J mouse BMMC cells assessed as inhibition of Mapk12 gene expression by RNA sequencing analysis; format: functional, cell-based
# BMMC [11] = experiment: Anti-osteoclastogenesis activity in M-CSF/RANKL-induced C57BL/6J mouse BMMC cells assessed as inhibition of CTSK gene expression by RNA sequencing analysis; format: functional, cell-based
# Mus musculus [12] = experiment: Anti-osteoporosis activity in ovariectomized C57BL/6 mouse assessed as prevention of bone loss by measuring recovery of BV/TV in femur at 0.6 mg/kg, ip administered every day for 6 weeks by 3D-imaging analysis relative to control; format: functional
# BMMC [13] = experiment: Anti-osteoclastogenesis activity in M-CSF/RANKL-induced C57BL/6J mouse BMMC cells assessed as reduction in TRAP mRNA expression at 0.05 to 5 uM measured after 2 days by RT-qPCR analysis; format: functional, cell-based; conditions: dose 0.05-5 µM, time 2.0 day
# [14] = Apparent volume of distribution in ICR mouse at 1 mg/kg, iv measured upto 24 hrs by LC-MS/MS analysis; format: ADME, organism-based; conditions: in vivo, read-out: Vz
# BMMC [15] = experiment: Anti-osteoclastogenesis activity in M-CSF/RANKL-induced C57BL/6J mouse BMMC cells assessed as inhibition of MMP9 gene expression by RNA sequencing analysis; format: functional, cell-based
# [16] = AUC (0 to infinity) in ICR mouse at 1 mg/kg, iv measured upto 24 hrs by LC-MS/MS analysis; format: ADME, organism-based; conditions: in vivo
# BMMC [17] = experiment: Anti-osteoclastogenesis activity in M-CSF/RANKL-induced C57BL/6J mouse BMMC cells assessed as reduction in TRAF6 mRNA expression at 0.05 to 5 uM measured after 2 days by RT-qPCR analysis; format: functional, cell-based; conditions: dose 0.05-5 µM, time 2.0 day
# BMMC [18] = experiment: Anti-osteoclastogenesis activity in M-CSF/RANKL-induced C57BL/6J mouse BMMC cells assessed as inhibition of osteoclast differentiation incubated for 7 days by TRAP staining based analysis; format: functional, cell-based; conditions: 168 h
# BMMC [19] = experiment: Anti-osteoclastogenesis activity in M-CSF/RANKL-induced C57BL/6J mouse BMMC cells assessed as inhibition of Fosl1 gene expression by RNA sequencing analysis; format: functional, cell-based
# BMMC [20] = experiment: Anti-osteoclastogenesis activity in M-CSF/RANKL-induced C57BL/6J mouse BMMC cells assessed as reduction in osteoclast generation at 0.5 uM incubated for 7 days by TRAP staining based analysis relative to control; format: functional; design: scale not given: the % may be the effect or the level left; conditions: time 7 day
# Mus musculus [21] = experiment: Anti-osteoporosis activity in ovariectomized C57BL/6 mouse assessed as prevention of bone loss by measuring recovery of trabecular spacing in femur at 0.6 mg/kg, ip administered every day for 6 weeks by 3D-imaging analysis relative to control; format: functional
smiles,measurement,setting,value
CCNC(=O)[C@@H](C)[C@H]1CC[C@H]2[C@@H]3CC=C4C(C)(C)c5nnsc5C[C@]4(C)[C@H]3CC[C@]12C,Activity,BMMC [1],Dose-Dependent Effect
same,Activity,BMMC [2],Active
same,Activity,BMMC [3],Active
same,Activity,BMMC [4],Dose-Dependent Effect
same,Activity,Mus musculus [5],Active
same,Activity,BMMC [6],Active
same,Activity,Mus musculus [7],inactive
same,Activity,BMMC [8],Active
same,Activity,[9],Non-Toxic
same,Activity,BMMC [10],Active
same,Activity,BMMC [11],Active
same,Activity,Mus musculus [12],57.15%
same,Activity,BMMC [13],Active
same,Vd,[14],4.85 L/kg
same,Activity,BMMC [15],Active
same,AUC(0-inf),[16],526 ng·h/mL
same,Activity,BMMC [17],Active
same,IC50,BMMC [18],52 nM
same,Activity,BMMC [19],Active
same,Activity,BMMC [20],~100%
same,Activity,Mus musculus [21],61.09%
